Here are results for eight compounds from US8383581B2, “Short-chain peptides as parathyroid hormone (PTH) receptor agonist” (Cadila Healthcare Limited, priority 2009, dated 2013).

Common to all, as to type: in vitro ADME
The nature of data set [1]: Stability of peptides in human plasma. Conditions: human, plasma; for metabolised at 24 h, 2 μM: pH 7.8. The method, then: (§1) b) Stability of Peptides in Human Plasma, Simulated Gastric Fluid, Intestinal Fluid and Liver Microsomes (Ex-Vivo): Different short-chain peptides (final concentration 2 μM) were incubated with either pooled human plasma (7.5 μL) or simulated gastric fluid (pH 1.5; composition HCl, NaCl and Pepsin) or simulated intestinal fluid (pH 7.5) or human liver microsomes, for 0, 2, 4, 6, 12 and 24 h (37° C.; 50 mM triethanolamine-HCl buffer; pH 7.8). Concentrations of human plasma/simulated gastric fluid/simulated intestinal fluid/human liver microsomes were selected in preliminary experiments to provide degradation of approximately 50% of PTH(1-34) within 1 h, therefore allowing time-dependent degradation to be viewed over 24 h. Reactions were terminated by the addition of TFA/H2O ([…], 10% (v/v)). The reaction products were then applied to a Vydac C18 analytical column (4.6×250-mm) and the major degradation fragment separated from intact short-chain peptides. The column was equilibrated with TFA/H20, at a flow rate of 1 mL/min. Using 0.1% (v/v) TFA in 70% acetonitrile/H2O, the concentration of acetonitrile in the eluting solvent was raised from 0% to 28% over 10 min and from 28% to 42% over 30 min. The absorbance was monitored at 206 nm using UV detector and peaks were collected manually prior to ESI-MS analysis. Area under the curve was measured for test peptides and their metabolites and percentage degradation were calculated at each time point over a period of 24 h. Stability study results of selected peptides, in human plasma, simulated gastric fluid, intestinal fluid and liver microsomes (in vitro) are listed in Table 4.

Data set [2] is described as follows: Stability of peptides in simulated gastric fluid (pH 1.5; HCl, NaCl and Pepsin). Conditions: pH 1.5; for % degradation of peptides in 24 h when incubated with simulated gastric fluid: 2 μM; for half-life / half-life (t1/2) in simulated gastric fluid: simulated gi fluid. The method, then: as §1
Data set [3] can be described thus: Stability of peptides in simulated intestinal fluid (pH 7.5). Particulars: pH 7.5; for half-life / half-life (t1/2) in simulated intestinal fluid: simulated gi fluid; for % degradation of peptides in 24 h when incubated with simulated intestinal fluid: 2 μM. As for the experimental part:
as §1

A short description of data set [4]: Stability of peptides in human liver microsomes. Particulars: human, microsomes; for % degradation of peptides in 24 h when incubated with liver microsomes: 2 μM, pH 7.8. As for the experimental part: as §1
Background: Liver microsomes are a subcellular fraction often used to study metabolism.

Usually half-life stands for the time needed for the level to fall by half in the phase considered. Read a low half-life as rapid decline.

Where a SMILES comes first, the peptide text is derived from it. [ ]: non-standard residue; d: D form. ξ: configuration not given here. ξBip(2'-Et-4'-OMe) = CCc1cc(OC)ccc1-c1ccc(CC(N)C(=O)O)cc1; Arg(NO2) = N=C(NCCC[C@H](N)C(=O)O)N[N+](=O)[O-]; ξαMePhe(2,6-F2) = CC(N)(Cc1c(F)cccc1F)C(=O)O; αMePhe(2-F) = C[C@](N)(Cc1ccccc1F)C(=O)O; ξαMe(hhPhe) = CC(N)(CCCc1ccccc1)C(=O)O; ξαMePhe(2-F) = CC(N)(Cc1ccccc1F)C(=O)O; ξαMeW = CC(N)(Cc1c[nH]c2ccccc12)C(=O)O; hhPhe = N[C@@H](CCCc1ccccc1)C(=O)O; hArg = N=C(N)NCCCC[C@H](N)C(=O)O; hCit = NC(=O)NCCCC[C@H](N)C(=O)O; Cit = NC(=O)NCCC[C@H](N)C(=O)O; ξαMeF = CC(N)(Cc1ccccc1)C(=O)O; ξαMeNle = CCCCC(C)(N)C(=O)O; Nle = CCCC[C@H](N)C(=O)O; Orn = NCCC[C@H](N)C(=O)O; ξαMeP = CC1(C(=O)O)CCCN1; Ac5c = NC1(C(=O)O)CCCC1; Ac3c = NC1(C(=O)O)CC1; Aib = CC(C)(N)C(=O)O

With `CCCC[C@H](NC(=O)[C@H](CC(C)C)NC(=O)[C@H](CCC(N)=O)NC(=O)[C@@H](NC(=O)[C@H](CCC(=O)O)NC(=O)C(C)(C)NC(=O)[C@@H](NC(=O)C(C)(C)N)C(C)C)[C@@H](C)CC)C(=O)N[C@@H](Cc1c[nH]cn1)C(=O)N[C@@H](CCC(N)=O)C(=O)N[C@@H](CCCCNC(=N)N)C(=O)NC(C)(C)C(=O)N[C@@H](CCCCN)C(=O)NC(C)(Cc1ccccc1)C(N)=O` (stereo partly shown) [Seq. ID. 10] (H-[Aib]V[Aib]EIQL[Nle]HQ[hArg][Aib]K[ξαMeF]-NH2), in data set [1], the “half-life (t1/2) in human plasma” value was “(9) h” and the metabolised at 24 h, 2 μM amounted to 70%. For the same compound, in data set [2], the “% degradation of peptides in 24 h when incubated with simulated gastric fluid” value (“% degradation … with simulated gastric fluid” for short) was 100% and the half-life is 30 min. Further, in data set [3], the half-life is 30 min and the “% degradation of peptides in 24 h when incubated with simulated intestinal fluid” value (“% degradation … with simulated intestinal fluid” for short) is recorded as 100%. In data set [4], the half-life stood at 30 min and the “% degradation of peptides in 24 h when incubated with liver microsomes” value (“% degradation … with liver microsomes” below) was 100%.
For `CCCC[C@H](NC(=O)C(C)(Cc1c(F)cccc1F)NC(=O)[C@H](CCC(N)=O)NC(=O)[C@@H](NC(=O)[C@H](CCC(=O)O)NC(=O)C(C)(C)NC(=O)[C@@H](NC(=O)C1(N)CCCC1)C(C)C)[C@@H](C)CC)C(=O)N[C@@H](Cc1c[nH]cn1)C(=O)N[C@@H](CCC(N)=O)C(=O)NC(C)(C)C(=O)NC(C)(C)C(=O)NC(C)(C)C(=O)NC(C)(Cc1ccccc1F)C(N)=O` (stereo partly shown) [Seq. ID. 560] (H-[Ac5c]V[Aib]EIQ[ξαMePhe(2,6-F2)][Nle]HQ[Aib][Aib][Aib][ξαMePhe(2-F)]-NH2), in data set [1], the half-life was determined as 480 min and the metabolised at 24 h, 2 μM came out at 78%. Moreover, in data set [2], the “% degradation … with simulated gastric fluid” value is on record as 14% and the “half-life (t1/2) in simulated gastric fluid” value was “(8) h”. In data set [3], the “half-life (t1/2) in simulated intestinal fluid” value is “(6) h” and the “% degradation … with simulated intestinal fluid” value is reported as 43%. For the same compound, in data set [4], the half-life turned out to be 60 min and the “% degradation … with liver microsomes” value came to 80%.
For the compound `CCCC[C@H](NC(=O)C(C)(Cc1c(F)cccc1F)NC(=O)[C@H](CCC(N)=O)NC(=O)[C@@H](NC(=O)[C@H](CCC(=O)O)NC(=O)C(C)(C)NC(=O)[C@@H](NC(=O)C(C)(C)N)C(C)C)[C@@H](C)CC)C(=O)N[C@@H](Cc1c[nH]cn1)C(=O)N[C@@H](CCC(N)=O)C(=O)N[C@@H](CCCCNC(N)=O)C(=O)N[C@@H](C)C(=O)N[C@@H](CCCNC(N)=O)C(=O)NC(Cc1ccc(-c2ccc(OC)cc2CC)cc1)C(=O)N[C@@H](CCCc1ccccc1)C(N)=O` (stereo partly shown) [Seq. ID. 860] (H-[Aib]V[Aib]EIQ[ξαMePhe(2,6-F2)][Nle]HQ[hCit]A[Cit][ξBip(2'-Et-4'-OMe)][hhPhe]-NH2), in data set [1], the half-life turned out to be 480 min and the metabolised at 24 h, 2 μM is 77%. Further, in data set [2], the “% degradation … with simulated gastric fluid” value is 14% and the “half-life (t1/2) in simulated gastric fluid” value was “(8) h”. In data set [3], the “half-life (t1/2) in simulated intestinal fluid” value is “(6) h” and the “% degradation … with simulated intestinal fluid” value is listed as 45%. In addition, in data set [4], the half-life amounted to 60 min and the “% degradation … with liver microsomes” value was 81%.
Regarding `CCCCC(C)(NC(=O)[C@H](CC(C)C)NC(=O)[C@H](CCC(N)=O)NC(=O)[C@@H](NC(=O)[C@H](CCC(=O)O)NC(=O)C(C)(C)NC(=O)[C@@H](NC(=O)C(C)(C)N)C(C)C)[C@@H](C)CC)C(=O)N[C@@H](Cc1c[nH]cn1)C(=O)N[C@@H](CCC(N)=O)C(=O)N[C@@H](CCCCNC(=N)N)C(=O)N[C@@H](C)C(=O)N[C@@H](CCCCNC(=N)N)C(=O)NC(C)(Cc1c[nH]c2ccccc12)C(=O)NC(C)(CCCc1ccccc1)C(N)=O` (stereo partly shown) [Seq. ID. 949] (H-[Aib]V[Aib]EIQL[ξαMeNle]HQ[hArg]A[hArg][ξαMeW][ξαMe(hhPhe)]-NH2), in data set [1], the “half-life (t1/2) in human plasma” value was “(9) h” and the metabolised at 24 h, 2 μM was 70%. Further, in data set [2], the “% degradation … with simulated gastric fluid” value is on record as 100% and the half-life is 30 min. Further, in data set [3], the half-life was 30 min and the “% degradation … with simulated intestinal fluid” value was 100%. Further, in data set [4], the half-life is 30 min and the “% degradation … with liver microsomes” value stood at 100%.
Take `CC[C@H](C)[C@H](NC(=O)[C@H](CCC(=O)O)NC(=O)C(C)(C)NC(=O)[C@@H](NC(=O)C1(NC(=O)[C@@H](N)C(C)C)CC1)C(C)C)C(=O)N[C@@H](CCC(N)=O)C(=O)N[C@@H](CC(C)C)C(=O)NC(C)(CCSC)C(=O)N[C@@H](Cc1c[nH]cn1)C(=O)N[C@@H](CCC(N)=O)C(=O)N[C@@H](CCCCNC(=N)N)C(=O)N[C@@H](C)C(=O)N[C@@H](CCCCNC(=N)N)C(=O)NC(C)(Cc1c[nH]c2ccccc12)C(=O)NC(C)(CCCc1ccccc1)C(N)=O` (single isomer, unassigned) [Seq. ID. 950]: in data set [1], the half-life was above 1440 min and the metabolised at 24 h, 2 μM stood at 0%. Besides, in data set [2], the “% degradation … with simulated gastric fluid” value is reported as 00% and the half-life is above 1440 min. In data set [3], the half-life was above 1440 min and the “% degradation … with simulated intestinal fluid” value is 00%. Besides, in data set [4], the “half-life (t1/2) in liver microsomes” value was “(5) h” and the “% degradation … with liver microsomes” value worked out at 35%.
In data set [1], `CCCC[C@H](NC(=O)C(C)(Cc1ccccc1F)NC(=O)[C@H](CCC(N)=O)NC(=O)[C@@H](NC(=O)[C@H](CCC(=O)O)NC(=O)C(C)(C)NC(=O)[C@@H](NC(=O)C(C)(C)N)C(C)C)[C@@H](C)CC)C(=O)N[C@@H](Cc1c[nH]cn1)C(=O)N[C@@H](CCC(N)=O)C(=O)N[C@@H](CCCCNC(=N)N)C(=O)N1CCCC1(C)C(=O)N[C@@H](CCCCN)C(=O)NC(C)(Cc1ccccc1F)C(N)=O` (stereo partly shown) [Seq. ID. 56] (H-[Aib]V[Aib]EIQ[ξαMePhe(2-F)][Nle]HQ[hArg][ξαMeP]K[ξαMePhe(2-F)]-NH2) returned a half-life above 1440 min and a metabolised at 24 h, 2 μM of 0%. Further, in data set [2], the “% degradation … with simulated gastric fluid” value is reported as 00% and the half-life was above 1440 min. In data set [3], the half-life was above 1440 min and the “% degradation … with simulated intestinal fluid” value is 00%. Further, in data set [4], the “half-life (t1/2) in liver microsomes” value is “(5) h” and the “% degradation … with liver microsomes” value was 32%.
For the compound `CCCC[C@H](NC(=O)[C@](C)(Cc1ccccc1F)NC(=O)[C@H](CCC(N)=O)NC(=O)[C@@H](NC(=O)[C@H](CCC(=O)O)NC(=O)C(C)(C)NC(=O)[C@@H](NC(=O)C(C)(C)N)C(C)C)[C@@H](C)CC)C(=O)N[C@@H](Cc1c[nH]cn1)C(=O)N[C@@H](CCC(N)=O)C(=O)N[C@@H](CCCN)C(=O)N[C@@H](C)C(=O)N[C@@H](CCCNC(=N)N[N+](=O)[O-])C(=O)N[C@@](C)(Cc1ccccc1F)C(N)=O` [Seq. ID. 329] (H-[Aib]V[Aib]EIQ[αMePhe(2-F)][Nle]HQ[Orn]A[Arg(NO2)][αMePhe(2-F)]-NH2), in data set [1], the “half-life (t1/2) in human plasma” value was “(9) h” and the metabolised at 24 h, 2 μM is 70%. Further, in data set [2], the “% degradation … with simulated gastric fluid” value is reported as 100% and the half-life is 30 min. In data set [3], the half-life was 30 min and the “% degradation … with simulated intestinal fluid” value was 100%. In data set [4], the half-life is 30 min and the “% degradation … with liver microsomes” value stood at 100%.
Regarding `CCCC[C@H](NC(=O)[C@H](CC(C)C)NC(=O)[C@H](CCC(N)=O)NC(=O)[C@@H](NC(=O)[C@H](CCC(=O)O)NC(=O)C1(NC(=O)[C@@H](NC(=O)C2(N)CC2)C(C)C)CC1)[C@@H](C)CC)C(=O)N[C@@H](Cc1c[nH]cn1)C(=O)N[C@@H](CCC(N)=O)C(=O)N[C@@H](CCCCNC(=N)N)C(=O)N[C@@H](C)C(=O)N[C@@H](CCCNC(=N)N[N+](=O)[O-])C(=O)NC(Cc1ccc(-c2ccc(OC)cc2CC)cc1)C(=O)N[C@@H](CCCc1ccccc1)C(N)=O` (stereo partly shown) [Seq. ID. 690] (H-[Ac3c]V[Ac3c]EIQL[Nle]HQ[hArg]A[Arg(NO2)][ξBip(2'-Et-4'-OMe)][hhPhe]-NH2), in data set [1], the half-life came out at 480 min and the metabolised at 24 h, 2 μM turned out to be 70%. Further, in data set [2], the “% degradation … with simulated gastric fluid” value is 12% and the “half-life (t1/2) in simulated gastric fluid” value is “(8) h”. Besides, in data set [3], the “half-life (t1/2) in simulated intestinal fluid” value was “(6) h” and the “% degradation … with simulated intestinal fluid” value is recorded as 42%. Besides, in data set [4], the half-life came out at 60 min and the “% degradation … with liver microsomes” value stood at 78%.
